Results from the kinase profiling compilation of Christmann-Franck et al. (2016).

What was measured:
Assay in all cases: radiometric filter-binding kinase assay, Kinase HotSpot
Details in all cases: compound 0.5 µM; ATP 10 µM
NUAK1 (human) = NUAK1 (human) (UniProt O60285)
EPHA7 (human) = EPHA7 (human) (UniProt Q15375)
EPHB1 (human) = EPHB1 (human) (UniProt P54762)
CSNK2A2 (human) = CSNK2A2 (human) (UniProt P19784)
CDK5 CDK5R1 p35 (human) = CDK5 CDK5R1 p35 (human) (UniProt Q00535+Q15078)
TAOK3 (human) = TAOK3 (human) (UniProt Q9H2K8)
TSSK1B (human) = TSSK1B (human) (UniProt Q9BXA7)
LIMK1 (human) = LIMK1 (human) (UniProt P53667)
Chain of LIMK1 (human) (P53667 whole entry, looked up): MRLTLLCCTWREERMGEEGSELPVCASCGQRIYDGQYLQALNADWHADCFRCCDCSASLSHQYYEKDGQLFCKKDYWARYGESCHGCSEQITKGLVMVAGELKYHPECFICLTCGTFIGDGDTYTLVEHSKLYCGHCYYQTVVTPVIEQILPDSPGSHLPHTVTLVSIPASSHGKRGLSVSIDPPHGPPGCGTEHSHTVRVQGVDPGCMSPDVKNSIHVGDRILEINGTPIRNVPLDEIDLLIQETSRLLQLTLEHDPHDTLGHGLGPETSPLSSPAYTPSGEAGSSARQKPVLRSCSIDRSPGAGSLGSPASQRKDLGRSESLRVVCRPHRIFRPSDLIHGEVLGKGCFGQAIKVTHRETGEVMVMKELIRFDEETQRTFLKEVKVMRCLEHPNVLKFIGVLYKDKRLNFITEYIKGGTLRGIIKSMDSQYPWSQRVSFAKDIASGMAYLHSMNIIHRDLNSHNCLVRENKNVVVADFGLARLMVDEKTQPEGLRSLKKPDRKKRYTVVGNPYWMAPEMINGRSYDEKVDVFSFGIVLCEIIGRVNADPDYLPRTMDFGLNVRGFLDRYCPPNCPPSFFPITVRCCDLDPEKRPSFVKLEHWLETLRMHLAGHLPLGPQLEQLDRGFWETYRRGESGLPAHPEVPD

CLK4 (human) = CLK4 (human) (UniProt Q9HAZ1)
FGFR1 (human) = FGFR1 (human) (UniProt P11362)
RPS6KA1 KD1 KD2 (human) = RPS6KA1 KD1 KD2 (human) (UniProt Q15418)
Chain of RPS6KA1 KD1 KD2 (human) (Q15418 whole entry, looked up): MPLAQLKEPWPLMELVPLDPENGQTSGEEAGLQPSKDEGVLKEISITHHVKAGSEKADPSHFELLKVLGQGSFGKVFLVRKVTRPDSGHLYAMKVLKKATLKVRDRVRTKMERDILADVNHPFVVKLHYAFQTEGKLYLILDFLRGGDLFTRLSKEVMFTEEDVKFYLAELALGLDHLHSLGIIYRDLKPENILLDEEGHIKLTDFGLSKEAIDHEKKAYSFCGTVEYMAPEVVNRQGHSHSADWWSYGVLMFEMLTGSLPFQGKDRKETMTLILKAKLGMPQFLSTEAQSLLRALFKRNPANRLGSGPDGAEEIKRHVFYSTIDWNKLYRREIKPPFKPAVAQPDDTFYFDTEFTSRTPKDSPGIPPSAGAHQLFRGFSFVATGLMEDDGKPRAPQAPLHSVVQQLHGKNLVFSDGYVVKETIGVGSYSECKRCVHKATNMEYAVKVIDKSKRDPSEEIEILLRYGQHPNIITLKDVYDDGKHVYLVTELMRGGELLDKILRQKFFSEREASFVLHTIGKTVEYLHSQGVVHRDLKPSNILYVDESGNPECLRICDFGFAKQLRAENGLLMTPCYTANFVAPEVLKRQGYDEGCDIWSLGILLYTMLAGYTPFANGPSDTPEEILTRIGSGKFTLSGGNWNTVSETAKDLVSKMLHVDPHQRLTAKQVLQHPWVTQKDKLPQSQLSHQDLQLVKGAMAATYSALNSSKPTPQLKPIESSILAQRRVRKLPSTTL

MAPK10 (human) = MAPK10 (human) (UniProt P53779)
Chain of MAPK10 (human) (P53779 whole entry, looked up): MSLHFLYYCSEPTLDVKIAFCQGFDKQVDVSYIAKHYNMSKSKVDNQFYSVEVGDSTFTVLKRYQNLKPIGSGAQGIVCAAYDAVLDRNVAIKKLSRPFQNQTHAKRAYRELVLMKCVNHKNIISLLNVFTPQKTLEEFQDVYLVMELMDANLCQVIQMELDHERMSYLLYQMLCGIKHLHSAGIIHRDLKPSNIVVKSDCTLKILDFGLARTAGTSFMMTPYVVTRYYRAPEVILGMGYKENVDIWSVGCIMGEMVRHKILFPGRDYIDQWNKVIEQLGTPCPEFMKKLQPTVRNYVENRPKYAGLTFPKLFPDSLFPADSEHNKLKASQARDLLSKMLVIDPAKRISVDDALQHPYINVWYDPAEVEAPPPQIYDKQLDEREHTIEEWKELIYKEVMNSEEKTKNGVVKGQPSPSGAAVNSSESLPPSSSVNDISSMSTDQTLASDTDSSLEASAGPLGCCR

ABL2 (human) = ABL2 (human) (UniProt P42684)
CDK1 CCNB1 (human) = CDK1 CCNB1 (human) (UniProt P06493+P14635)
MAP4K2 (human) = MAP4K2 (human) (UniProt Q12851)
PKN1 (human) = PKN1 (human) (UniProt Q16512)
Chain of PKN1 (human) (Q16512 whole entry, looked up): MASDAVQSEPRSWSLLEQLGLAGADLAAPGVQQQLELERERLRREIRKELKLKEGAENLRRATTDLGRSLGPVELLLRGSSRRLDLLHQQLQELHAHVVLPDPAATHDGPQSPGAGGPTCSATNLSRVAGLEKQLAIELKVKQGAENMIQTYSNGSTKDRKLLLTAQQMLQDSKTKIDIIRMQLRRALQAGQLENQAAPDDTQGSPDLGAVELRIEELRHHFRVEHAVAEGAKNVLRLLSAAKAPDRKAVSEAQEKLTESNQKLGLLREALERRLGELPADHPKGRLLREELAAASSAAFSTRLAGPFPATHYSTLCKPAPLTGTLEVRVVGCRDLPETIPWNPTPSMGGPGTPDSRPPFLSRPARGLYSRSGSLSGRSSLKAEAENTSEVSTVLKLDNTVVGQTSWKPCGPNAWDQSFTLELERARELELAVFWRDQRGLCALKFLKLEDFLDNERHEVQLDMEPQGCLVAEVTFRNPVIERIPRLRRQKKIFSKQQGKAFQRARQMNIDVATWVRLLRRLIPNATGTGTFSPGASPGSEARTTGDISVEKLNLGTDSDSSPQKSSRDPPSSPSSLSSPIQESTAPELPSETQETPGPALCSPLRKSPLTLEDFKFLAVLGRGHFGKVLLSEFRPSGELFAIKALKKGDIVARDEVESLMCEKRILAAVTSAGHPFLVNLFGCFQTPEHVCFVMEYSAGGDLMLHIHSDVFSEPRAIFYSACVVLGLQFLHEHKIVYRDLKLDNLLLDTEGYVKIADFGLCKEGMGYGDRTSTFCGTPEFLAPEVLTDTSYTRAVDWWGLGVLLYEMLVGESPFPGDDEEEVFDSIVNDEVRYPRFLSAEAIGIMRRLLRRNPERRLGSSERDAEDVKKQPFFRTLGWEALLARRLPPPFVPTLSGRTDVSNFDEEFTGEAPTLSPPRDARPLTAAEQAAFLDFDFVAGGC

IGF1R (human) = IGF1R (human) (UniProt P08069)
ZAP70 (human) = ZAP70 (human) (UniProt P43403)
AKT2 (human) = AKT2 (human) (UniProt P31751)
TAOK1 (human) = TAOK1 (human) (UniProt Q7L7X3)
FLT1 (human) = FLT1 (human) (UniProt P17948)
LRRK2 (human) = LRRK2 (human) (UniProt Q5S007)
INSR (human) = INSR (human) (UniProt P06213)
TNK2 (human) = TNK2 (human) (UniProt Q07912)
Chain of TNK2 (human) (Q07912 whole entry, looked up): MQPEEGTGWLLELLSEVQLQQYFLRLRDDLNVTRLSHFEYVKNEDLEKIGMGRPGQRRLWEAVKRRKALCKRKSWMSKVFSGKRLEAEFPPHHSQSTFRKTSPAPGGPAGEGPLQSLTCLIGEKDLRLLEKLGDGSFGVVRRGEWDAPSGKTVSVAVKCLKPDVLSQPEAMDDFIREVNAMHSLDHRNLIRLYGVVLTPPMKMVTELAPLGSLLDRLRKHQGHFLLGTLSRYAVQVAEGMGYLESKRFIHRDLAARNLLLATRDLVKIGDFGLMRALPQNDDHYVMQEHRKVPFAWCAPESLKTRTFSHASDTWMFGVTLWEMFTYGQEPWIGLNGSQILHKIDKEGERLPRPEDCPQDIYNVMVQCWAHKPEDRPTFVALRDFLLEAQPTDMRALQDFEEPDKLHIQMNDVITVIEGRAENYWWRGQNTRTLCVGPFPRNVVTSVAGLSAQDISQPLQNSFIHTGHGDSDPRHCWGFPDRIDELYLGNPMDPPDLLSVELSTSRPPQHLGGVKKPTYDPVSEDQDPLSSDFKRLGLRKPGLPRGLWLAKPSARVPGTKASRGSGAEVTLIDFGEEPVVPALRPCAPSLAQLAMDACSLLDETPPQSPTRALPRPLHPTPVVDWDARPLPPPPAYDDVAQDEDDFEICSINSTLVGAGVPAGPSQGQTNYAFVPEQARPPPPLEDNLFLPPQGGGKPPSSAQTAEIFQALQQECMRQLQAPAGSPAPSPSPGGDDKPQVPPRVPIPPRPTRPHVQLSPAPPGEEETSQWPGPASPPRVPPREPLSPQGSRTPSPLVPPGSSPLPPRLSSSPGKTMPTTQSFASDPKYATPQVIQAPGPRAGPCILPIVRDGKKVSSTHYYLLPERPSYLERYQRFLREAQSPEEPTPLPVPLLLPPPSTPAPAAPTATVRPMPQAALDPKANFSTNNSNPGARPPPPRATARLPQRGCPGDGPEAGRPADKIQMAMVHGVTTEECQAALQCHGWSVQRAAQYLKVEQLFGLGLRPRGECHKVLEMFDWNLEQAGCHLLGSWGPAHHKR

RAF1 (human) = RAF1 (human) (UniProt P04049)
PASK (human) = PASK (human) (UniProt Q96RG2)
PRKD1 (human) = PRKD1 (human) (UniProt Q15139)
ABL1 (human) = ABL1 (human) (UniProt P00519)
PRKACA (human) = PRKACA (human) (UniProt P17612)
STK16 (human) = STK16 (human) (UniProt O75716)
TXK (human) = TXK (human) (UniProt P42681)
STK10 (human) = STK10 (human) (UniProt O94804)
FGFR4 (human) = FGFR4 (human) (UniProt P22455)
MAPK14 (human) = MAPK14 (human) (UniProt Q16539)
Chain of MAPK14 (human) (Q16539 whole entry, looked up): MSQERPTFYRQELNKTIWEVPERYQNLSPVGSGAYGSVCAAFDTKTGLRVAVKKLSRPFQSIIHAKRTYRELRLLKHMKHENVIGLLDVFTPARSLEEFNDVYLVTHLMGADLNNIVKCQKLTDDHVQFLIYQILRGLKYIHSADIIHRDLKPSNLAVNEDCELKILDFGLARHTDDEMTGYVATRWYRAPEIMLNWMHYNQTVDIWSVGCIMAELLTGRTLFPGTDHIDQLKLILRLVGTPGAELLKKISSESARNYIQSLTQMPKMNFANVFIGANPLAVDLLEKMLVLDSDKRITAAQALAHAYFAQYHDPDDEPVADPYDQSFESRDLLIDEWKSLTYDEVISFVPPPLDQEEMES

MARK3 (human) = MARK3 (human) (UniProt P27448)
DYRK1A (human) = DYRK1A (human) (UniProt Q13627)
RPS6KA6 KD1 KD2 (human) = RPS6KA6 KD1 KD2 (human) (UniProt Q9UK32)
CAMKK1 (human) = CAMKK1 (human) (UniProt Q8N5S9)
Chain of CAMKK1 (human) (Q8N5S9 whole entry, looked up): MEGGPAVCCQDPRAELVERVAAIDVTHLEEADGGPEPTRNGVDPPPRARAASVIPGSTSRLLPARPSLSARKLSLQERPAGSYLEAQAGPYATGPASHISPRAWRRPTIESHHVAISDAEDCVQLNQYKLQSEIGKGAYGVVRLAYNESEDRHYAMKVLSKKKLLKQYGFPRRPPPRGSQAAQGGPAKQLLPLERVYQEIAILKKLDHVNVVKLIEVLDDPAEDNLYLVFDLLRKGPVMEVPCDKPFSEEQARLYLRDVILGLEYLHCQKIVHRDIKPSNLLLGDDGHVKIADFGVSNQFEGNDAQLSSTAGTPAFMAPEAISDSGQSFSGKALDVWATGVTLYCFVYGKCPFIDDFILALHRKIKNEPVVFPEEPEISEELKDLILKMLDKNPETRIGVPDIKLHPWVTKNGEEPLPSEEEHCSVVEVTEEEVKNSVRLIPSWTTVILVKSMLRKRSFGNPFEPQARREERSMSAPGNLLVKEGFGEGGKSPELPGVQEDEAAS

NTRK2 (human) = NTRK2 (human) (UniProt Q16620)
PAK7 (human) = PAK7 (human) (UniProt Q9P286)
RPS6KB1 (human) = RPS6KB1 (human) (UniProt P23443)
NEK11 (human) = NEK11 (human) (UniProt Q8NG66)

Chain of CSNK2A2 (human) (P19784 whole entry, looked up): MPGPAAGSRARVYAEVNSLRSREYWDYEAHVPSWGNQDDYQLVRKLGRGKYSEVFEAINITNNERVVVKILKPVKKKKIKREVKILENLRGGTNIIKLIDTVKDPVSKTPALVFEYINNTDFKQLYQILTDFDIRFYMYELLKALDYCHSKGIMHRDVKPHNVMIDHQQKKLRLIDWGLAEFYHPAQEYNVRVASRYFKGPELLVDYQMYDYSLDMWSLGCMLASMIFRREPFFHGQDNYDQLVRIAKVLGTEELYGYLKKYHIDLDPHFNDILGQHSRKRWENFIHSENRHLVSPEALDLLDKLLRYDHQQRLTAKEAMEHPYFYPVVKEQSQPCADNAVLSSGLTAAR

CCc1nc(-c2ccc(OC)cc2)[nH]c1-c1ccncc1
residual activity (NUAK1 (human)): 92.8%
residual activity (EPHA7 (human)): 91.6%
residual activity (EPHB1 (human)): 104%
residual activity (CSNK2A2 (human)): 95.3%
residual activity (CDK5 CDK5R1 p35 (human)): 100%
residual activity (TAOK3 (human)): 107%
residual activity (TSSK1B (human)): 106%
residual activity (LIMK1 (human)): 94.9%
residual activity (CLK4 (human)): 99.3%
residual activity (FGFR1 (human)): 88.1%
residual activity (RPS6KA1 KD1 KD2 (human)): 106%
residual activity (MAPK10 (human)): 100%
residual activity (ABL2 (human)): 98.3%
residual activity (CDK1 CCNB1 (human)): 102%
residual activity (MAP4K2 (human)): 106%
residual activity (PKN1 (human)): 97%
residual activity (IGF1R (human)): 99.5%
residual activity (ZAP70 (human)): 101%
residual activity (AKT2 (human)): 100%
residual activity (TAOK1 (human)): 104%
residual activity (FLT1 (human)): 90.2%
residual activity (LRRK2 (human)): 96.7%
residual activity (INSR (human)): 85%
residual activity (TNK2 (human)): 100%
residual activity (RAF1 (human)): 93.4%
residual activity (PASK (human)): 96.3%
residual activity (PRKD1 (human)): 100%
residual activity (ABL1 (human)): 101%
residual activity (PRKACA (human)): 100%
residual activity (STK16 (human)): 108%
residual activity (TXK (human)): 100%
residual activity (STK10 (human)): 96.8%
residual activity (FGFR4 (human)): 95.9%
residual activity (MAPK14 (human)): 113%
residual activity (MARK3 (human)): 101%
residual activity (DYRK1A (human)): 97.7%
residual activity (RPS6KA6 KD1 KD2 (human)): 111%
residual activity (CAMKK1 (human)): 122%
residual activity (NTRK2 (human)): 105%
residual activity (PAK7 (human)): 101%
residual activity (RPS6KB1 (human)): 98.4%
residual activity (NEK11 (human)): 77.4%

COc1cc2c(N3CCN(C(=O)Nc4ccc(OC(C)C)cc4)CC3)ncnc2cc1OCCCN1CCCCC1
residual activity (NUAK1 (human)): 104%
residual activity (EPHA7 (human)): 97.5%
residual activity (EPHB1 (human)): 96.6%
residual activity (CSNK2A2 (human)): 92.9%
residual activity (CDK5 CDK5R1 p35 (human)): 99.4%
residual activity (TAOK3 (human)): 96.8%
residual activity (TSSK1B (human)): 96.8%
residual activity (LIMK1 (human)): 88.6%
residual activity (CLK4 (human)): 88.7%
residual activity (FGFR1 (human)): 101%
residual activity (RPS6KA1 KD1 KD2 (human)): 94.8%
residual activity (MAPK10 (human)): 94.6%
residual activity (CDK1 CCNB1 (human)): 97.1%
residual activity (MAP4K2 (human)): 104%
residual activity (PKN1 (human)): 108%
residual activity (IGF1R (human)): 97.7%
residual activity (ZAP70 (human)): 116%
residual activity (AKT2 (human)): 97.9%
residual activity (TAOK1 (human)): 103%
residual activity (FLT1 (human)): 99.4%
residual activity (LRRK2 (human)): 123%
residual activity (INSR (human)): 99.3%
residual activity (TNK2 (human)): 92.7%
residual activity (RAF1 (human)): 96.7%
residual activity (PASK (human)): 105%
residual activity (PRKD1 (human)): 96.1%
residual activity (ABL1 (human)): 104%
residual activity (PRKACA (human)): 103%
residual activity (STK16 (human)): 103%
residual activity (TXK (human)): 105%
residual activity (STK10 (human)): 95%
residual activity (FGFR4 (human)): 87.8%
residual activity (MAPK14 (human)): 94.1%
residual activity (MARK3 (human)): 103%
residual activity (DYRK1A (human)): 104%
residual activity (RPS6KA6 KD1 KD2 (human)): 106%
residual activity (CAMKK1 (human)): 90.3%
residual activity (NTRK2 (human)): 81.7%
residual activity (PAK7 (human)): 87.5%
residual activity (RPS6KB1 (human)): 107%
residual activity (NEK11 (human)): 92.5%
